Source: patent US11345694B2, “Antibacterial compounds” (DISCUVA LTD., priority 2017, dated 2022)
≈ marks a conversion by molar mass, not a printed value.

Columns and labels:
[1] = test system: human hepatocarcinoma cell line ATCC HB-8065 (HepG2); experiment: Human cell viability (CellTiter-Glo); type: cell-based; settings: Homo sapiens; HepG2 cells, 24 h incubation, CellTiter-Glo luminescence, 0.2-100 μM; read-out: IC50 values against the HepG2 cell line
Procedure: Compounds are assessed for potential non-specific cytotoxic effects against the human hepatocarcinoma cell line ATCC HB-8065 (HepG2). HepG2 cells are seeded at 20,000 cells/well in 96-well microtitre plates in minimal essential medium (MEM) supplemented with a final concentration of 10% FBS. After 24 h, compound dilutions are prepared in MEM supplemented with a final concentration of 1% FBS, and added to the cells. Compounds are tested in two-fold serial dilutions over a final concentration range of 0.2-100 μM in a final DMSO concentration of 1% vol/vol. Thioridazine is used as a positive control. Cells are incubated with compound at 37° C. and 5% CO2 for a further 24 h, after which time the CellTiter-Glo reagent (Promega) is added. Luminescence is measured on a Perkin Elmer Envision plate reader. Data are analysed using a 4 parameter logistic regression to determine the concentration of compound that inhibits cell viability by fifty percent (IC50).

[2] = test system: K. pneumoniae NCTC 13438 (KP1); experiment: MIC broth microdilution; type: cell-based, Klebsiella pneumoniae; settings: Klebsiella pneumoniae, NCTC13438
Procedure: (§1) Minimum Inhibitory Concentrations (MICs) versus planktonic bacteria are determined by the broth microdilution procedure according to the guidelines of the Clinical and Laboratory Standards Institute (Clinical and Laboratory Standards Institute. Methods for Dilution Antimicrobial Susceptibility Tests for Bacteria That Grow Aerobically; Approved Standard-tenth Edition. CLSI document M07-A10, 2015). The broth dilution method involves a two-fold serial dilution of compounds in 96-well microtitre plates, giving a final concentration range of 0.39-200 μM and a maximum final concentration of 2% DMSO. The bacterial strains tested include Escherichia coli K12 (EC), E. coli NCTC 13441 (UPEC), Staphylococcus aureus ATCC 35556 (SA), Acinetobacter baumannii ATCC 17978 (AB), Pseudomonas aeruginosa ATCC 33359 (PA), Enterobacter cloacae DSM 30054 (Ed), Serratia marcescens SL1344 (Sm), Salmonella typhimurium XNAA5 (St), Klebsiella pneumoniae ATCC 10031 (KP2), K. pneumoniae NCTC 13438 (KP1), K. pneumoniae ATCC 700603 (KP3), Klebsiella pneumoniae ATCC 51504 (KP4), K. pneumoniae H154680676 (KP5), K. pneumoniae H154020667 (KP6), K. pneumoniae H154640784 (KP7), K. pneumoniae H154600588 (KP8), K. pneumoniae H154300688 (KP9), K. pneumoniae H151440671 (KP10). Strains are grown in cation-adjusted Müller-Hinton broth or on Luria Bertoni agar at 37° C. in an ambient atmosphere. The MIC is determined as the lowest concentration of compound that inhibits growth following a 20-24 hour incubation period.

[3] = test system: Acinetobacter baumannii ATCC 17978 (AB); experiment: MIC broth microdilution; type: cell-based; settings: ATCC17978
Procedure: as §1

[4] = test system: Klebsiella pneumoniae ATCC 10031 (KP2); experiment: MIC broth microdilution; type: cell-based; settings: ATCC10031
Procedure: as §1

[5] = test system: Escherichia coli K12 (EC); experiment: MIC broth microdilution; type: cell-based
Procedure: as §1

[6] = test system: Pseudomonas aeruginosa ATCC 33359 (PA); experiment: MIC broth microdilution; type: cell-based; settings: ATCC33359
Procedure: as §1

[7] = test system: Staphylococcus aureus ATCC 35556 (SA); experiment: MIC broth microdilution; type: cell-based; settings: ATCC35556
Procedure: as §1

[8] = test system: E. coli NCTC 13441 (UPEC); experiment: MIC broth microdilution; type: cell-based, Escherichia coli; settings: Escherichia coli, NCTC13441
Procedure: as §1

## COc1ccc(-c2nc(N)[nH]c2-c2ccnc(C)c2)cn1 [Example 2, 4-(6-Methoxypyridin-3-yl)-5-(2-methylpyridin-4-yl)-1H-imidazol-2-amine]
[1]
  IC50: > 100 µM
[2]
  MIC: 10 to 100 µM (≈ 2.81 to 28.1 µg/mL)
[3]
  MIC: > 100 µM
[4]
  MIC: ≤ 1 µM
[5]
  MIC: 1 to 10 µM (≈ 0.281 to 2.81 µg/mL)
[6]
  MIC: > 100 µM
[7]
  MIC: > 100 µM
[8]
  MIC: 1 to 10 µM (≈ 0.281 to 2.81 µg/mL)

## Cc1cc(-c2[nH]c(N)nc2-c2ccc3c(c2)OCCCO3)ccn1 [Example 5, 4-(3,4-dihydro-2H-benzo[b][1,4]dioxepin-7-yl)-5-(2-methylpyridin-4-yl)-1H-imidazol-2-amine]
[1]
  IC50: > 100 µM
[2]
  MIC: 10 to 100 µM (≈ 3.22 to 32.2 µg/mL)
[3]
  MIC: > 100 µM
[4]
  MIC: ≤ 1 µM
[5]
  MIC: 1 to 10 µM (≈ 0.322 to 3.22 µg/mL)
[6]
  MIC: > 100 µM
[7]
  MIC: > 100 µM
[8]
  MIC: 1 to 10 µM (≈ 0.322 to 3.22 µg/mL)

## COc1cc(-c2[nH]c(N)nc2-c2ccnc(C)c2)ccc1F [Example 6, 5-(4-Fluoro-3-methoxyphenyl)-4-(2-methylpyridin-4-yl)-1H-imidazol-2-amine]
[1]
  IC50: > 100 µM
[2]
  MIC: 10 to 100 µM (≈ 2.98 to 29.8 µg/mL)
[3]
  MIC: > 100 µM
[4]
  MIC: ≤ 1 µM
[5]
  MIC: 1 to 10 µM (≈ 0.298 to 2.98 µg/mL)
[6]
  MIC: > 100 µM
[7]
  MIC: > 100 µM
[8]
  MIC: 1 to 10 µM (≈ 0.298 to 2.98 µg/mL)

## Nc1cc(-c2[nH]c(N)nc2-c2ccc3c(c2)CCO3)ccn1 [Example 8, 4-(2-Amino-4-(2,3-dihydrobenzofuran-5-yl)-1H-imidazol-5-yl)pyridin-2-amine]
[1]
  IC50: > 100 µM
[2]
  MIC: 10 to 100 µM (≈ 2.93 to 29.3 µg/mL)
[3]
  MIC: > 100 µM
[4]
  MIC: ≤ 1 µM
[5]
  MIC: ≤ 1 µM
[6]
  MIC: > 100 µM
[7]
  MIC: > 100 µM
[8]
  MIC: ≤ 1 µM

## Cc1cc(-c2nc(N)[nH]c2-c2ccc(C(=O)N(C)C)cc2)ccn1 [Example 10, 4-(2-Amino-4-(2-methylpyridin-4-yl)-1H-imidazol-5-yl)-N,N-dimethylbenzamide]
[1]
  IC50: > 100 µM
[2]
  MIC: > 100 µM
[3]
  MIC: > 100 µM
[4]
  MIC: 1 to 10 µM (≈ 0.321 to 3.21 µg/mL)
[5]
  MIC: > 100 µM
[6]
  MIC: > 100 µM
[7]
  MIC: > 100 µM
[8]
  MIC: > 100 µM

## COc1ccc(-c2[nH]c(N)nc2-c2ccnc(C)c2)cc1F [Example 11, 5-(3-Fluoro-4-methoxyphenyl)-4-(2-methylpyridin-4-yl)-1H-imidazol-2-amine]
[1]
  IC50: > 100 µM
[2]
  MIC: 10 to 100 µM (≈ 2.98 to 29.8 µg/mL)
[3]
  MIC: > 100 µM
[4]
  MIC: ≤ 1 µM
[5]
  MIC: 1 to 10 µM (≈ 0.298 to 2.98 µg/mL)
[6]
  MIC: > 100 µM
[7]
  MIC: > 100 µM
[8]
  MIC: 1 to 10 µM (≈ 0.298 to 2.98 µg/mL)

## Cc1cc(-c2nc(N)[nH]c2-c2ccc(OCC3CC3)c(F)c2)ccn1 [Example 13, 5-(4-(Cyclopropylmethoxy)-3-fluorophenyl)-4-(2-methylpyridin-4-yl)-1H-imidazol-2-amine]
[1]
  IC50: 25 to 100 µM
[2]
  MIC: 10 to 100 µM (≈ 3.38 to 33.8 µg/mL)
[3]
  MIC: > 100 µM
[4]
  MIC: ≤ 1 µM
[5]
  MIC: 1 to 10 µM (≈ 0.338 to 3.38 µg/mL)
[6]
  MIC: > 100 µM
[7]
  MIC: > 100 µM
[8]
  MIC: 1 to 10 µM (≈ 0.338 to 3.38 µg/mL)

## Cc1cc(-c2nc(N)[nH]c2-c2ccc(OC3CC3)c(F)c2)ccn1 [Example 14, 5-(4-Cyclopropoxy-3-fluorophenyl)-4-(2-methylpyridin-4-yl)-1H-imidazol-2-amine]
[1]
  IC50: > 100 µM
[2]
  MIC: 1 to 10 µM (≈ 0.324 to 3.24 µg/mL)
[3]
  MIC: > 100 µM
[4]
  MIC: ≤ 1 µM
[5]
  MIC: ≤ 1 µM
[6]
  MIC: > 100 µM
[7]
  MIC: > 100 µM
[8]
  MIC: ≤ 1 µM

## Cc1cc(-c2nc(N)[nH]c2-c2ccc(O)c(F)c2)ccn1 [Example 15, 4-(2-Amino-4-(2-methylpyridin-4-yl)-1H-imidazol-5-yl)-2-fluorophenol]
[1]
  IC50: > 100 µM
[2]
  MIC: 10 to 100 µM (≈ 2.84 to 28.4 µg/mL)
[3]
  MIC: > 100 µM
[4]
  MIC: ≤ 1 µM
[5]
  MIC: 10 to 100 µM (≈ 2.84 to 28.4 µg/mL)
[6]
  MIC: > 100 µM
[7]
  MIC: > 100 µM
[8]
  MIC: 1 to 10 µM (≈ 0.284 to 2.84 µg/mL)

## CCOc1ccc(-c2[nH]c(N)nc2-c2ccnc(C)c2)cc1F [Example 17, 5-(4-Ethoxy-3-fluorophenyl)-4-(2-methylpyridin-4-yl)-1H-imidazol-2-amine]
[1]
  IC50: > 100 µM
[2]
  MIC: 10 to 100 µM (≈ 3.12 to 31.2 µg/mL)
[3]
  MIC: > 100 µM
[4]
  MIC: ≤ 1 µM
[5]
  MIC: 1 to 10 µM (≈ 0.312 to 3.12 µg/mL)
[6]
  MIC: > 100 µM
[7]
  MIC: > 100 µM
[8]
  MIC: 1 to 10 µM (≈ 0.312 to 3.12 µg/mL)

## Nc1nc(-c2ccc3c(c2)OCCO3)c(-c2cc[nH]c(=O)c2)[nH]1 [Example 18, 4-(2-Amino-4-(2,3-dihydrobenzo[b][1,4]dioxin-6-yl)-1H-imidazol-5-yl)pyridin-2(1H)-one]
[1]
  IC50: > 100 µM
[2]
  MIC: > 100 µM
[3]
  MIC: > 100 µM
[4]
  MIC: 1 to 10 µM (≈ 0.31 to 3.1 µg/mL)
[5]
  MIC: 10 to 100 µM (≈ 3.1 to 31 µg/mL)
[6]
  MIC: > 100 µM
[7]
  MIC: > 100 µM
[8]
  MIC: 10 to 100 µM (≈ 3.1 to 31 µg/mL)

## Cc1cc(-c2[nH]c(N)nc2-c2ccc(OC(F)(F)F)cc2)ccn1 [Example 20, 5-(2-Methylpyridin-4-yl)-4-(4-(trifluoromethoxy)phenyl)-1H-imidazol-2-amine]
[1]
  IC50: 25 to 100 µM
[2]
  MIC: 10 to 100 µM (≈ 3.34 to 33.4 µg/mL)
[3]
  MIC: > 100 µM
[4]
  MIC: ≤ 1 µM
[5]
  MIC: 1 to 10 µM (≈ 0.334 to 3.34 µg/mL)
[6]
  MIC: > 100 µM
[7]
  MIC: > 100 µM
[8]
  MIC: 1 to 10 µM (≈ 0.334 to 3.34 µg/mL)

## COc1cccc(-c2nc(N)[nH]c2-c2ccnc(C)c2)c1 [Example 25, 4-(3-Methoxyphenyl)-5-(2-methylpyridin-4-yl)-1H-imidazol-2-amine]
[1]
  IC50: > 100 µM
[2]
  MIC: 10 to 100 µM (≈ 2.8 to 28 µg/mL)
[3]
  MIC: > 100 µM
[4]
  MIC: ≤ 1 µM
[5]
  MIC: 10 to 100 µM (≈ 2.8 to 28 µg/mL)
[6]
  MIC: > 100 µM
[7]
  MIC: > 100 µM
[8]
  MIC: 10 to 100 µM (≈ 2.8 to 28 µg/mL)

## Cc1cc(-c2[nH]c(N)nc2-c2ccc3nccnc3c2)ccn1 [Example 31, 5-(2-Methylpyridin-4-yl)-4-(quinoxalin-6-yl)-1H-imidazol-2-amine]
[1]
  IC50: > 100 µM
[2]
  MIC: 10 to 100 µM (≈ 3.02 to 30.2 µg/mL)
[3]
  MIC: > 100 µM
[4]
  MIC: ≤ 1 µM
[5]
  MIC: 1 to 10 µM (≈ 0.302 to 3.02 µg/mL)
[6]
  MIC: > 100 µM
[7]
  MIC: > 100 µM
[8]
  MIC: 1 to 10 µM (≈ 0.302 to 3.02 µg/mL)

## Cc1cc(-c2[nH]c(N)nc2-c2ccc3c(c2)NC(=O)C(C)O3)ccn1 (stereo not drawn) [Example 33, 6-(2-Amino-5-(2-methylpyridin-4-yl)-1H-imidazol-4-yl)-2-methyl-2H-benzo[b][1,4]oxazin-3(4H)-one]
[1]
  IC50: > 100 µM
[2]
  MIC: 10 to 100 µM (≈ 3.35 to 33.5 µg/mL)
[3]
  MIC: > 100 µM
[4]
  MIC: ≤ 1 µM
[5]
  MIC: 1 to 10 µM (≈ 0.335 to 3.35 µg/mL)
[6]
  MIC: > 100 µM
[7]
  MIC: > 100 µM
[8]
  MIC: 1 to 10 µM (≈ 0.335 to 3.35 µg/mL)
